PMC6271006, “Monoamine Oxidase Inhibitory Constituents of Propolis: Kinetics and Mechanism of Inhibition of Recombinant Human MAO-A and MAO-B” (Molecules, 2014)
Like-named read-outs stand apart in the source and are kept apart here.

Key:
recombinant human MAO-B [1] = target: T1, recombinant human MAO-B (Homo sapiens, UniProt P27338); test: Reversibility of binding by enzyme-inhibitor complex dissociation dialysis, MAO-B; format: biochemical; details: for MAO-B activity recovery after dialysis: overnight dialysis
T1 construct: purchased BD Biosciences (Bedford, MA, USA)
T1 sequence (P27338 1-520): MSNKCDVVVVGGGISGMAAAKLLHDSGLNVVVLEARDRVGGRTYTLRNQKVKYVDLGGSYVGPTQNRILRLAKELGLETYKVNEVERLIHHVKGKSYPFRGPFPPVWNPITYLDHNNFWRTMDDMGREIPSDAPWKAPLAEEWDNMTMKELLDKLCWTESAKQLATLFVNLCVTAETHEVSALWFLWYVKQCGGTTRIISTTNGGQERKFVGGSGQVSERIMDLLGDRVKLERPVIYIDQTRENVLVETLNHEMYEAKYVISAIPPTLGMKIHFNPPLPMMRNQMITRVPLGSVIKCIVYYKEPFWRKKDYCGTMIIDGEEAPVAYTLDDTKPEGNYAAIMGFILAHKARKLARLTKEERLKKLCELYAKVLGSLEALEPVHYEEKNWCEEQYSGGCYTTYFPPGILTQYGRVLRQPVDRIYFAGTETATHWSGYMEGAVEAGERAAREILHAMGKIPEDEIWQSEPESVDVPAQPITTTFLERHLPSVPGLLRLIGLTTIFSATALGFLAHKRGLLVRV
Procedure: (§1) The characteristic binding of these inhibitors was also investigated by the enzyme-inhibitor complex dissociation by dialysis. High concentrations of the inhibitors were allowed to interact with the enzyme (MAO-A or B) for 20 min and the resulting enzyme-inhibitor complex mixtures were dialyzed overnight against buffer solutions. The catalytic activities of the enzymes were analyzed before and after the dialysis. The recombinant human MAO-A lost about 30% of the enzyme activity during overnight dialysis. […] After the dialysis about 70% and 80% activity of the enzyme was recovered from enzyme-galangin and enzyme-apigenin incubation mixtures. This observation indicated reversal of the enzyme activity due to formation of dissociable enzyme-inhibitor complex. […] The recombinant MAO-B lost about 30% of the enzyme activity during overnight dialysis.
(§2) Most of the inhibitors produce inhibition of the target enzyme through formation of an enzyme-inhibitor complex. Formation of the enzyme-inhibitor complex may be accelerated in presence of high concentration of the inhibitor. […] After 20 min incubation at 37 °C, the reaction was stopped by chilling the tubes on the ice bath. All the samples were dialyzed against potassium phosphate buffer (25 mM; pH 7.4) at 4 °C for 14 h (three buffer changes). Control enzyme (without inhibitor) was also run through the same procedure and activity of the enzyme was determined before and after the dialysis. Recovery of the catalytic activity enzyme after extensive dialysis of the enzyme-inhibitor mix provided the information about reversibility/irreversibility of binding of the inhibitor with the enzyme.

recombinant human MAO-A [2] = target: T2, recombinant human MAO-A (Homo sapiens, UniProt P21397); test: MAO-A inhibition, kynuramine deamination assay (IC50); format: biochemical; details: for IC50: pure compounds, 80 μM kynuramine, mean ± S.D. of triplicate, read-out: Monoamine Oxidase-A (IC50)
T2 construct: purchased BD Biosciences (Bedford, MA, USA)
T2 sequence (P21397 1-527): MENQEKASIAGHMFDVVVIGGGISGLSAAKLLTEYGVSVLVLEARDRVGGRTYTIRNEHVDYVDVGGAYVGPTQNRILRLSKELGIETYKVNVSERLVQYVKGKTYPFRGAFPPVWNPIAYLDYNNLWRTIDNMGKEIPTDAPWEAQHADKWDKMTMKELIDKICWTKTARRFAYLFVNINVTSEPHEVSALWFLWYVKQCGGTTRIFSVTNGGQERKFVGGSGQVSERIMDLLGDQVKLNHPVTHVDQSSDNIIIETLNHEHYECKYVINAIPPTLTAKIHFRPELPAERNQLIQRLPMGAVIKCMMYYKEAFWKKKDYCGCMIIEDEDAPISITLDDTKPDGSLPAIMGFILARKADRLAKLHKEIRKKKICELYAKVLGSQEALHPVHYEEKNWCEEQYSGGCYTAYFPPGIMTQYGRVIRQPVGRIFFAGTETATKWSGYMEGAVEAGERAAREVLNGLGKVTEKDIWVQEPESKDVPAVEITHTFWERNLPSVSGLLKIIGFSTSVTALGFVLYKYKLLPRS
Procedure: (§3) To investigate the effect of the selected constituents on MAO-A and MAO-B, the kynuramine deamination assay was adapted for 96-well plates as described earlier. […] For MAO-A, the substrate concentration of 80 μM kynuramine was chosen because the apparent KM value for substrate binding reported previously was approximately 40 μM [48]. […] Similarly, for MAO-B, substrate concentration of 50 μM kynuramine was chosen. The assay was performed with the addition of inhibitor. Inhibition was calculated as percent of product formation compared to the corresponding control (enzyme-substrate reaction) without the inhibitors. The reactions were carried out in 0.1 M potassium phosphate buffer at pH 7.4. Incubations mixtures contained 5 μg/mL of MAO-A (50 μL in buffer) and 10 μg/mL of MAO-B (50 μL in buffer). The inhibitor was dissolved in DMSO or in buffer (if not dissolved in DMSO). The total reaction volume was 200 μL yielding a final DMSO concentration of 1.0% in the reaction mixture. The reaction mixtures were pre-incubated for 10 min at 37 °C followed by the addition of MAO-A/MAO-B to initiate the reactions. Reactions were incubated for 20 min at 37 °C and were stopped immediately by the addition of 75 μL of 2N NaOH. The formation of 4-hydroxyquinoline was determined fluorometrically by SpectraMax M5 fluorescence plate reader (Molecular Devices, Sunnyvale, CA, USA) with an excitation and emission wavelength of 320 nm and 380 nm, respectively, using the Soft Max Pro program. Appropriate controls with the test compounds, fractions and extracts, where the enzyme or the substrate was added after stopping the reaction were setup simultaneously to check interference with the fluorescence measurements.
(§4) IC50 values for inhibition of MAO-A and B by the selected constituents were determined using fixed concentration of substrate and varying concentration of the inhibitor.

recombinant human MAO-B [3] = target: T1, recombinant human MAO-B; test: Time-dependent enzyme inhibition, MAO-B; format: biochemical; details: pre-incubation 0-15 min; galangin 14.0 μM, apigenin 4.0 μM
Procedure: (§5) The controls without inhibitors were also run simultaneously. Activities of the enzymes were determined as described above and percentage of enzyme activity remaining was plotted against the preincubation time to determine time-dependent inhibition.
(§6) The controls without inhibitors were also run simultaneously. Activities of the enzymes were determined as described above and percentage of enzyme activity remaining was plotted against the preincubation time to determine time-dependent enzyme-inhibition.

recombinant human MAO-A [4] = target: T2, recombinant human MAO-A; test: Reversibility of binding by enzyme-inhibitor complex dissociation dialysis, MAO-A; format: biochemical; details: for MAO-A activity recovered after dialysis: overnight dialysis; for Nature of binding with MAO-A: dialysis dissociation
Procedure: as §1, §2

recombinant human MAO-B [5] = target: T1, recombinant human MAO-B; test: Enzyme kinetics / inhibition mechanism, MAO-B (Ki, Lineweaver-Burk); format: biochemical
Source text: (§7) Based on dose-response inhibition, two concentrations of the inhibitors were selected, one below and another above IC50 value for the inhibition. For each experiment, three sets of assays were done at varying concentrations of the substrate, one control without inhibitors and with two concentrations of the inhibitor.
(§8) Controls without inhibitor were also run simultaneously.

recombinant human MAO-B [6] = target: T1, recombinant human MAO-B; test: MAO-B inhibition, kynuramine deamination assay (IC50); format: biochemical; details: pure compounds; 50 μM kynuramine; mean ± S.D. of triplicate; read-out: Monoamine Oxidase-B (IC50)
Procedure: as §3, §4

total MAO (A & B) = system: total MAO (A & B); set-up: method as in not given; details: mouse brain crude mitochondrial preparation; earlier study, ref not given; read-out: IC50 for inhibition of total MAO (A & B); cited from earlier work
MAO-A = system: MAO-A; set-up: method as in not given; details: mouse brain crude mitochondrial preparation, iso-enzyme specific substrates; earlier study, ref not given; cited from earlier work
recombinant human MAO-A [7] = target: T2, recombinant human MAO-A; test: Time-dependent enzyme inhibition, MAO-A; format: biochemical; details: pre-incubation 0-15 min; galangin 0.25 μM, apigenin 1.2 μM
Procedure: as §5, §6

recombinant human MAO-A [8] = target: T2, recombinant human MAO-A; test: Enzyme kinetics / inhibition mechanism, MAO-A (Ki, Lineweaver-Burk); format: biochemical; details: for Ki: kynuramine 1.90-500 μM, SigmaPlot enzyme module, mean ± S.D. of triplicate experiments, read-out: Monoamine Oxidase-A Ki
Source text: as §7, §8

O=c1cc(-c2ccc(O)cc2)oc2cc(O)cc(O)c12 [Apigenin, apigenin]
inhibition at 25 µM (recombinant human MAO-B [1]; 25.0 μM inhibitor, 20 min incubation, read-out: Inhibition of catalytic activity of MAO-B before dialysis): ~90%
MAO-B activity recovery after dialysis (recombinant human MAO-B [1]; 25.0 μM inhibitor): almost fully recovered
IC50 (recombinant human MAO-A [2]): 0.64 ± 0.11 µM
Time-dependence of binding/inhibition of MAO-B (recombinant human MAO-B [3]): not dependent on pre-incubation time
inhibition at 20 µM (recombinant human MAO-A [4]; 20.0 μM inhibitor, 20 min incubation, read-out: Inhibition of catalytic activity of MAO-A before dialysis): > 88%
MAO-A activity recovered after dialysis (recombinant human MAO-A [4]; 20.0 μM inhibitor): ~80%
Nature of binding with MAO-A (recombinant human MAO-A [4]): reversible
Monoamine Oxidase-B Type of Inhibition (recombinant human MAO-B [5]): Competitive/Reversible
Ki (recombinant human MAO-B [5]; kynuramine 1.90-500 μM, SigmaPlot enzyme module, mean ± S.D. of triplicate experiments, read-out: Monoamine Oxidase-B Ki): 0.238 ± 0.024 µM
Monoamine Oxidase-B Type of Inhibition (recombinant human MAO-B [5]; listed as apigenin): competitive
IC50 (recombinant human MAO-B [6]): 1.12 ± 0.27 µM
IC50 (total MAO (A & B)): 1 µM
Potency of MAO-A inhibition relative to MAO-B (MAO-A): about 7.5 fold
Time-dependence of binding/inhibition of MAO-A (recombinant human MAO-A [7]): not dependent on pre-incubation time
Monoamine Oxidase-A Type of Inhibition (recombinant human MAO-A [8]): Competitive/Reversible
Ki (recombinant human MAO-A [8]): 0.125 ± 0.014 µM
Monoamine Oxidase-A Type of Inhibition (recombinant human MAO-A [8]; listed as apigenin): competitive

O=c1c(O)c(-c2ccc(O)c(O)c2)oc2cc(O)ccc12 [Fisetin hydrate, fisetin]
Selectivity for MAO-A vs. MAO-B (recombinant human MAO-A [2]; MAO-A over MAO-B): > 47 fold
IC50 (recombinant human MAO-A [2]): 2.1 ± 0.09 µM
IC50 (recombinant human MAO-B [6]): > 100 µM

O=c1c(O)c(-c2ccccc2)oc2cc(O)cc(O)c12 [Galangin, galangin]
Inhibition of MAO-B enzyme activity before dialysis (recombinant human MAO-B [1]; 50.0 μM inhibitor, 20 min incubation): ~58.3
MAO-B activity recovery after dialysis (recombinant human MAO-B [1]; 50.0 μM inhibitor): almost completely recovered
IC50 (recombinant human MAO-A [2]): 0.13 ± 0.01 µM
Time-dependence of binding/inhibition of MAO-B (recombinant human MAO-B [3]): not dependent on pre-incubation time
inhibition at 10 µM (recombinant human MAO-A [4]; 10.0 μM inhibitor, 20 min incubation, read-out: Inhibition of catalytic activity of MAO-A before dialysis): > 97%
MAO-A activity recovered after dialysis (recombinant human MAO-A [4]; 10.0 μM inhibitor): about 70%
Nature of binding with MAO-A (recombinant human MAO-A [4]): reversible
Monoamine Oxidase-B Type of Inhibition (recombinant human MAO-B [5]): Competitive/Reversible
Monoamine Oxidase-B Type of Inhibition (recombinant human MAO-B [5]; listed as galangin): competitive
Time-dependence of binding/inhibition of MAO-A (recombinant human MAO-A [7]): not dependent on pre-incubation time
Monoamine Oxidase-A Type of Inhibition (recombinant human MAO-A [8]): Competitive/Reversible
Ki (recombinant human MAO-A [8]): 0.029 ± 0.004 µM
Monoamine Oxidase-A Type of Inhibition (recombinant human MAO-A [8]; listed as galangin): competitive

COc1ccc2c(c1)[nH]c1c(C)nccc12 [Harmine, reference compound]
IC50 (recombinant human MAO-B [6]): 27.5 ± 2.67 µM
Monoamine Oxidase-A Type of Inhibition (recombinant human MAO-A [8]): Competitive/Reversible

O=c1c(O)c(-c2ccc(O)cc2O)oc2cc(O)cc(O)c12 [Morin hydrate, morin]
Selectivity for MAO-A vs. MAO-B (recombinant human MAO-A [2]; MAO-A over MAO-B): 9 fold
IC50 (recombinant human MAO-A [2]): 5.88 ± 0.15 µM
IC50 (recombinant human MAO-B [6]): 49.7 ± 0.56 µM

O=c1c(O)c(-c2ccc(O)c(O)c2)oc2cc(O)cc(O)c12 [Quercetin, quercetin]
Selectivity for MAO-A vs. MAO-B (recombinant human MAO-A [2]): 15 fold
IC50 (recombinant human MAO-A [2]): 2.44 ± 0.12 µM
IC50 (recombinant human MAO-B [6]): 38.7 ± 1.2 µM

O=C1c2c(O)cc(O)cc2OC(c2ccc(O)c(O)c2)C1O (stereo not shown) [Toxifolin, taxifolin]
IC50 (recombinant human MAO-A [2]): 65.1 ± 1.96 µM
IC50 (recombinant human MAO-B [6]): 53.8 ± 3.91 µM
